Results reported in the Kinase Knowledgebase extract (Sharma et al. 2016).

Biological target: EGFR (UniProt P00533)
Sequence (P00533 whole entry, looked up): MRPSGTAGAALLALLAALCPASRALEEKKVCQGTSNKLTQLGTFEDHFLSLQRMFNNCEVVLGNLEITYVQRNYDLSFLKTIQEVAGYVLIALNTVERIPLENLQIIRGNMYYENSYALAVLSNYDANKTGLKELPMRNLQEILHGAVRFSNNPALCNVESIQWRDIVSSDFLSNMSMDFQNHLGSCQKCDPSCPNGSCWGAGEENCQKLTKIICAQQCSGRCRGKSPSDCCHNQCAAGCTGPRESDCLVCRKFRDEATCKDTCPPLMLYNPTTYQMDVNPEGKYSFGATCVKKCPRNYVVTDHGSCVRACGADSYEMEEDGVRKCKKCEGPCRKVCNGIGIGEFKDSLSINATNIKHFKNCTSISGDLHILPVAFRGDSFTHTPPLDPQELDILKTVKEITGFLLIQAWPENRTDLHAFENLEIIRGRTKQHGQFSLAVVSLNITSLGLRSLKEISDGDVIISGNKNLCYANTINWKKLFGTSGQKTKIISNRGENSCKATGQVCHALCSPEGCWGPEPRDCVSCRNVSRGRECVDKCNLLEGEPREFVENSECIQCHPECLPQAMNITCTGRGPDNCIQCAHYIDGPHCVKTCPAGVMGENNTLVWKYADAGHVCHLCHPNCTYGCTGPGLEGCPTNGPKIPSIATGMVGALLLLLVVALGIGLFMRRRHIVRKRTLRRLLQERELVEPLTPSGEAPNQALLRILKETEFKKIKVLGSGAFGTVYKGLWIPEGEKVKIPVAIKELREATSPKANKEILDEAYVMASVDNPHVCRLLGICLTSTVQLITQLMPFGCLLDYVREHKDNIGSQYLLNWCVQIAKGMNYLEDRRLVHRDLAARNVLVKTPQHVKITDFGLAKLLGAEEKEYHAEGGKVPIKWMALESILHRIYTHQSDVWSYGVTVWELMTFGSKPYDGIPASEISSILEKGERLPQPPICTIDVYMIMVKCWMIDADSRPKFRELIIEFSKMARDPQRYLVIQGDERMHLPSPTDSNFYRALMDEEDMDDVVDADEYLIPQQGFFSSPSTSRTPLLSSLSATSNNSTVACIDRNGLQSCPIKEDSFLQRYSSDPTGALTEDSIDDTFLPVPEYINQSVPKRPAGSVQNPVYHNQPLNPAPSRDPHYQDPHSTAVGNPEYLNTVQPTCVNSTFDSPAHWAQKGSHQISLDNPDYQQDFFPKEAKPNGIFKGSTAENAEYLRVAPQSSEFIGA

| Compound | IC50 [µM] |
| --- | --- |
| COc1cc(Nc2nccc(Nc3ccc4c(cnn4Cc4ccccc4)c3)n2)cc(OC)c1OC | < 1.5 |
| COc1ccc(-c2ccn(-c3ccnc(Nc4cc(OC)c(OC)c(OC)c4)n3)n2)cc1 | 5 to 10 |
| Cc1cccc(Nc2nccc(Nc3cccc(Br)c3)n2)c1 | ≥ 10 |
| COc1cc(Nc2nccc(-n3c(=O)oc4ccccc43)n2)cc(OC)c1OC | ≥ 10 |
| COc1cc(Nc2nccc(Nc3cc(C(C)(C)C)n[nH]3)n2)cc(OC)c1OC | 5 to 10 |
| COc1cc(Nc2ccnc(Nc3ccc4c(cnn4Cc4ccccc4)c3)n2)cc(OC)c1OC | 1.5 to 5 |
| Clc1cccc(Nc2ccnc(Nc3cccc(Cl)c3)n2)c1 | ≥ 10 |
| COc1cc(Nc2ccnc(Nc3ccc(OCc4ccccc4)cc3)n2)cc(OC)c1OC | ≥ 10 |
| COc1cc(Nc2nccc(-n3ccc4ccccc43)n2)cc(OC)c1OC | ≥ 10 |
| COc1cc(Nc2nccc(-n3ccc(-c4ccc(Cl)cc4)n3)n2)cc(OC)c1OC | ≥ 10 |
| Cc1cccc(Nc2ccnc(Nc3cccc(Br)c3)n2)c1 | ≥ 10 |
| COc1cc(Nc2ccnc(-n3ccc4ccccc43)n2)cc(OC)c1OC | ≥ 10 |
| COc1cc(Nc2nccc(-n3c(=O)[nH]c4ccccc43)n2)cc(OC)c1OC | ≥ 10 |
| COc1cc(Nc2nccc(-n3c(N)nc4ccccc43)n2)cc(OC)c1OC | ≥ 10 |
| COc1cc(Nc2ccnc(Nc3ccc(Oc4ccccc4)cc3)n2)cc(OC)c1OC | 5 to 10 |
| COc1ccc(Nc2ccnc(Nc3ccc(OC)c(OC)c3)n2)cc1OC | ≥ 10 |
